Assay results taken from US8993619B2, “Cyclic bridgehead ether DGAT1 inhibitors” (Novartis AG, priority 2012, dated 2015).

Legend:
human (His)6DGAT1 = target: T1, human (His)6DGAT1 (Homo sapiens, UniProt O75907); experiment: DGAT1 Inhibition Assay; format: biochemical; conditions: membrane preparation from Sf9 cells overexpressing human (His)6DGAT1; LC/MS/MS readout
T1 construct: made in house; host or cells: Sf9 insect cells (membrane preparation)
T1 sequence (O75907 1-488): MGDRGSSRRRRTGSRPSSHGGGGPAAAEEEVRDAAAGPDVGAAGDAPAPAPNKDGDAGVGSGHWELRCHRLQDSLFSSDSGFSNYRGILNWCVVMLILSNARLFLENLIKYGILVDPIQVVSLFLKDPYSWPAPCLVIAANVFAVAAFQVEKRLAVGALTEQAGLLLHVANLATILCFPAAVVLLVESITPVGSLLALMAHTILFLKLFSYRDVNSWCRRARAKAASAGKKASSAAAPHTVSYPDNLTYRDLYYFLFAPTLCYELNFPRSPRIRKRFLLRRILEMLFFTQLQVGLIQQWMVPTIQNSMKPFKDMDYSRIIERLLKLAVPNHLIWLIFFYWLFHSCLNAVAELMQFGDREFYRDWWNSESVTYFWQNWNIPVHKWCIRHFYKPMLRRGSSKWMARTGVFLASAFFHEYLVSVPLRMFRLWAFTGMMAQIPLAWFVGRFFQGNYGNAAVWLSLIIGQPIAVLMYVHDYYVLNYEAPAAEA
Protocol: The enzyme preparation used in this assay is a membrane preparation from Sf9 cells overexpressing human (His)6DGAT1. During all steps samples were chilled to 4° C. Sf9 cells expressing human (His)6DGAT1 were thawed at room temperature and re-suspended at a 10:1 ratio (mL buffer/g of cells) in 50 mM HEPES, 1× Complete Protease Inhibitor, pH 7.5. The re-suspended pellet was homogenized for 1 min using a Brinkman PT 10/35 homogenizer with a 20 mm generator. Cells were lysed using Avestin Emulsiflex (chilled to 4° C.) at 10000-15000 psi. Lysate was centrifuged at 100,000×g for 1 h at 4° C. Supernatant was removed and pellets were re-suspended in 50 mM HEPES, 1× Complete Protease Inhibitor, pH 7.5 at ⅙ the volume of supernatant. Re-suspended pellets were pooled and homogenized with 10 strokes of a Glas-Col motor driven teflon pestle on setting 70. The protein concentration of the membrane preparation was quantified using BCA protein assay with 1% SDS. The membrane preparation was aliquoted, frozen on dry ice, and stored at −80° C.
For 50 mL, 25 mL of 0.2 M HEPES stock buffer, 0.5 mL of 1 M MgCl2 ([…]), and 24.5 mL of milli-Q H2O are added to the 55 mL Wheaton Potter-Elvehjem homogenizer. Enzyme preparation (0.1 mL) is added to buffer and the mixture is homogenized with 5 strokes on ice using the Glas-Col variable speed homogenizer system on setting 70.
For 50 mL, 0.5 mL 10 mM diolein is added to 9.5 mL of EtOH in a 50 mL Falcon screw cap conical centrifuge tube. Five mL of 10 mM sodium acetate pH 4.5 is added followed by 0.5 mL of 10 mM oleoyl-CoA. Finally, the remaining 4.5 mL of 10 mM sodium acetate pH 4.5 is added followed by 30 mL of milli-Q H20. The solution should be gently agitated by hand to induce mixing. The final concentrations of EtOH and sodium acetate are 20% and 2 mM, respectively.
Dry compounds are dissolved in the appropriate volume of DMSO to a final concentration of 10 mM. […] All dilutions are performed in DMSO in a Greiner 384-well microplate. • 1. 2 μL of compound in DMSO is added to the appropriate wells. […] 25 μL of enzyme mix is added to all wells and plate(s) are incubated for 10 min at RT. • 3. […] Plate(s) are vortexed using Troemner multi-tube vortexer (setting 7 for 10 sec). • 4. 25 μL of substrate mix is added to all wells. Plate(s) are vortexed using Troemner multi-tube vortexer (setting 7 for 10 sec). Plate(s) are incubated for 30 min at RT. • 5. 10 μL of 20% acetic acid quench is added to all wells. Plate(s) are vortexed using Troemner multi-tube vortexer (setting 7 for 10 sec). • 6. 50 μL of 1-butanol w/ glyceryl tripalmitoleate internal standard is added to all wells. • 7. Plate(s) are sealed with super pierce strong plate sealer using the thermo-sealer. • 8. Plate(s) are vortexed using Troemner multi-tube vortexer (setting 10 for 5 min). • 9. Plate(s) are centrifuged at 162×g (1000 rpm for GH-3.8 rotor) for 5 min using Beckman GS-6R tabletop centrifuge.
Where indicated, tripalmitolein was used as an internal standard to control for instrument variation.
Column: Thermo Betabasic 4, 2.1×20 mm
Solvent: 10 mM Ammonium Formate, 0.1% Formic Acid, 2% water, 98% Methanol
Isocratic run 0.5 ml per minute
Data is converted to % inhibition prior to curve fitting using the following equation: […]

DGAT1 in C2C12 cells = target: T2, DGAT1 in C2C12 cells (Mus musculus, UniProt Q9Z2A7); experiment: Cellular assay to measure activity of DGAT1 inhibitors in mammalian cells (C2C12); format: cell-based; conditions: C2C12 mouse skeletal muscle cells, 250 μM oleate, 2 h, LC/MS readout
T2 construct: endogenous in cells; host or cells: C2C12 mouse skeletal muscle cells
T2 sequence (Q9Z2A7 1-498): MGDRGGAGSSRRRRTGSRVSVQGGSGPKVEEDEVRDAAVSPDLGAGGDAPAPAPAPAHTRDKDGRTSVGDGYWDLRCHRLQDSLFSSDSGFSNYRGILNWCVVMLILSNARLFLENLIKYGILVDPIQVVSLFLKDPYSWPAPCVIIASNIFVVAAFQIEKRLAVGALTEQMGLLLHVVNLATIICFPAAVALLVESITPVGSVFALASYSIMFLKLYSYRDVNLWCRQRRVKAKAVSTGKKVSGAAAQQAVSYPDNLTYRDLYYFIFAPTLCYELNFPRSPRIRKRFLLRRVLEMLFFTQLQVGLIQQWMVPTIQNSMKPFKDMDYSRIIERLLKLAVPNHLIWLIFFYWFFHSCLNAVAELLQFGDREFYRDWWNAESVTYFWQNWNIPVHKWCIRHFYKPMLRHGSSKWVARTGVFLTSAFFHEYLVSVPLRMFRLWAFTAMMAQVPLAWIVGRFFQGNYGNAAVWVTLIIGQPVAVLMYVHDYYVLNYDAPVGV
Protocol: C2C12 cells are an immortal mouse skeletal muscle cell line showing an 8-fold enrichment form DGAT1 versus DGAT2. C2C12 cells were routinely cultured in 150 cm2 flasks with DMEM (25 mM glucose) containing 10% FBS, 4 m M L-glutamine, 100 U/ml penicillin and 100 μg/ml streptomycin (30 ml per flask), at 37° C., 5% CO2 and 95% humidity. All studies were performed on cells at passage 10 or less.
C2C12 cells were seeded in 96-well plates in DMEM containing […] glucose and 10% FBS, 18 h (at 37° C.) prior to assay (all wells of the plate are used). […] Compounds were added at 1:3 dilution, 11 points and DMSO control, the starting concentration was usually 40 μM. Each point was dosed in quadruplicate allowing 2 compounds to be dosed per plate. The medium was removed at the end of the incubation and 200 μl/well of 1-butanol added. The 1-butanol contained an internal standard, tripalmitolein (2 μM). The plates were sealed with an adhesive plate sealer and left at room temperature for at least 30 min, then spun down at 209×g for 5 min.
Butanolic extracts were transferred to 384-well LC-MS plates (80 μl/well) and the plate heatsealed with a foil plate sealer. The 384-well plates containing sample were spun down at 209×g for 5 min prior to loading on the LC-MS.
Where indicated, tripalmitolein was used as an internal standard to control for instrument variation. HPLC conditions as above.

| IC50 (human (His)6DGAT1) [nM] | IC50 (DGAT1 in C2C12 cells) [nM] | IC50 (DGAT1 in C2C12 cells; heading: DGAT1-C2C12 IC50) [nM] | Compound |
| --- | --- | --- | --- |
| 345 | 288 | – | CC(C)(C)c1nnc(Nc2ccc(-c3ccc(C45CCC(CC(=O)O)(CC4)OC5)cc3)nc2)o1 [Example 1, 2-(4-(4-(5-(5-tert-butyl-1,3,4-oxadiazol-2-ylamino)pyridin-2-yl)phenyl)-2-oxabicyclo[2.2.2]octan-1-yl)acetic acid] |
| 53.5 | 15 | – | O=C(O)CC12CCC(c3ccc(-c4ccc(Nc5nnc(C6CCC6)s5)cn4)cc3)(CC1)CO2 [Example 3, 2-(4-(4-(5-((5-cyclobutyl-1,3,4-thiadiazol-2-yl)amino)pyridin-2-yl)phenyl)-2-oxabicyclo[2.2.2]octan-1-yl)acetic acid] |
| 14000 | 2500 | – | O=C(O)CC12CCC(c3ccc(-c4cnc(Nc5nnc(C6CCC6)s5)nc4)cc3)(CC1)CO2 [Example 4, 2-(4-(4-(2-(5-cyclobutyl-1,3,4-thiadiazol-2-ylamino)pyrimidin-5-yl)phenyl)-2-oxabicyclo[2.2.2]octan-1-yl)acetic acid] |
| 375 | 1240 | – | O=C(O)CC12CCC(c3ccc(-c4ccc(Nc5nnc(C6CCC6)s5)nc4)cc3)(CC1)CO2 [Example 5, 2-(4-(4-(6-((5-cyclobutyl-1,3,4-thiadiazol-2-yl)amino)pyridin-3-yl)phenyl)-2-oxabicyclo[2.2.2]octan-1-yl)acetic acid] |
| 12.5 | 2 | – | O=C(O)CC12CCC(c3ccc(-c4ccc(Nc5nnc(C6CCC6)s5)cc4)cc3)(CC1)CO2 [Example 6, 2-(4-(4′-(5-cyclobutyl-1,3,4-thiadiazol-2-ylamino)biphenyl-4-yl)-2-oxabicyclo[2.2.2]octan-1-yl)acetic acid] |
| 99 | 9 | – | CC(C)(C)c1nnc(Nc2ccc(-c3ccc(C45CCC(CC(=O)O)(CC4)OC5)cc3)cc2)o1 [Example 8, 2-(4-(4′-(5-tert-butyl-1,3,4-oxadiazol-2-ylamino)biphenyl-4-yl)-2-oxabicyclo[2.2.2]octan-1-yl)acetic acid] |
| 230000 | – | 528 | O=C(O)CC12CCC(c3ccc(-c4ccc(Nc5nnc(C6CC6)o5)cc4)cc3)(CC1)CO2 [Example 9, 2-(4-(4′-((5-cyclopropyl-1,3,4-oxadiazol-2-yl)amino)-[1,1′-biphenyl]-4-yl)-2-oxabicyclo[2.2.2]octan-1-yl)acetic acid] |
| 360 | 56 | – | Cc1nc(C(=O)Nc2ccc(-c3ccc(C45CCC(CC(=O)O)(CC4)OC5)cc3)cc2)c(C(F)(F)F)o1 [Example 10, 2-(4-(4′-(2-methyl-5-(trifluoromethyl)oxazole-4-carboxamido)-[1,1′-biphenyl]-4-yl)-2-oxabicyclo[2.2.2]octan-1-yl)acetic acid] |
| 878 | – | – | Cc1nc(C(=O)Nc2ccc(-c3ccc(C45CCC(CC(=O)O)(CC4)OC5)cc3)nc2)c(C(F)(F)F)o1 [Example 12, 2-(4-(4-(5-(2-methyl-5-(trifluoromethyl)oxazole-4-carboxamido)pyridin-2-yl)phenyl)-2-oxabicyclo[2.2.2]octan-1-yl)acetic acid] |
| 130 | 108 | – | CC(C)(C)c1cnc(Nc2ccc(-c3ccc(C45CCC(CC(=O)O)(CC4)OC5)cc3)nc2)o1 [Example 14, 2-(4-(4-(5-((5-(tert-butyl)oxazol-2-yl)amino)pyridin-2-yl)phenyl)-2-oxabicyclo[2.2.2]octan-1-yl)acetic acid] |
| 44 | 7 | – | CC(C)(C)c1cnc(Nc2ccc(-c3ccc(C45CCC(CC(=O)O)(CC4)OC5)cc3)cc2)o1 [Example 15, 2-(4-(4′-((5-(tert-butyl)oxazol-2-yl)amino)-[1,1′-biphenyl]-4-yl)-2-oxabicyclo[2.2.2]octan-1-yl)acetic acid] |
| 60 | 38 | – | CC(C)Cc1nnc(Nc2ccc(-c3ccc(C45CCC(CC(=O)O)(CC4)OC5)cc3)cc2)o1 [Example 16, 2-(4-(4′-((5-isobutyl-1,3,4-oxadiazol-2-yl)amino)-[1,1′-biphenyl]-4-yl)-2-oxabicyclo[2.2.2]octan-1-yl)acetic acid] |
| 53 | 31 | – | CC(C)(C)Cc1nnc(Nc2ccc(-c3ccc(C45CCC(CC(=O)O)(CC4)OC5)cc3)cc2)o1 [Example 17, 2-(4-(4′-((5-neopentyl-1,3,4-oxadiazol-2-yl)amino)-[1,1′-biphenyl]-4-yl)-2-oxabicyclo[2.2.2]octan-1-yl)acetic acid] |
| 2900 | 160 | – | CCc1nc(C)c(C(=O)Nc2ccc(-c3ccc(C45CCC(CC(=O)O)(CC4)CO5)cc3)cc2)o1 [Example 18, 2-(1-(4′-(2-ethyl-4-methyloxazole-5-carboxamido)-[1,1′-biphenyl]-4-yl)-2-oxabicyclo[2.2.2]octan-4-yl)acetic acid] |
| 260 | 6 | – | O=C(O)CC12CCC(c3ccc(-c4ccc(Nc5nnc(C6CCC6)o5)cc4)cc3)(CC1)OC2 [Example 19, {1-[4′-(5-cyclobutyl-[1,3,4]oxadiazol-2-ylamino)-biphenyl-4-yl]-2-oxa-bicyclo[2.2.2]oct-4-yl}-acetic acid] |
